Results as given in patent US20170260169A1, “INHIBITORS FOR STEROID RESPONSE ELEMENTS AND RNA POLYMERASE II AND RELATED METHODS” (priority 2007, published 2017).

Columns and labels:
RNAP2 genomic occupancy = test: ChIP-seq of RNA polymerase II occupancy in LNCaP cells; format: cell-based, human
[1] = Liver microsomal stability, mouse; conditions: 1 μM, Mouse, 1 hr at 37° C., 1 mg/ml microsomes
Experimental: (§1) Briefly, each polyamide was incubated with 1 mg/ml human or mouse microsomes at 37° C. The reaction was incubated in 100 mM KH2PO4, 2 mM NADPH, 3 mM MgCl2 at pH 7.4. Samples were also incubated in the absence of NADPH to detect NADPH-free degradation. After 60 min the samples were mixed with an equal volume of ice cold methanol stop solution. The mixture was allowed to sit on ice for at least 10 min and mixed with an equal volume of water. The samples were then centrifuged to remove the precipitates and the samples were analyzed by LC/MS/MS. Data represents % remaining by comparing with time zero concentration. The experiments were performed in duplicate.

LNCaP cells = test: Cell viability WST-1 assay; format: cell-based; conditions: LNCaP
Experimental: LNCaP cells were plated in clear bottom 96 well plates at 5,000-7,500 cells per well. The cells were allowed to adhere for 24-36 h before compounds were added in fresh media. Cell viability was determined by the WST-1 assay (Roche) for 77 and 85 after 24 h or 72 h incubation with cells. Cells in cytotoxicity rescue experiments were treated with 85 alone or with 3 μM for 24 h.
LNCaP cells were plated in clear bottom 96-well plates at 5,000-7,500 cells per well and allowed to adhere for 36-48 h. Compounds were then added in fresh media. Cell metabolic activity was determined by the WST-1 assay (Roche) after 72-h incubation with cells. Quantification was performed on a Perkin Elmer Victor 3 plate reader. Assays were performed in biological triplicates.

[2] = tested on: binding of LNCaP nuclear extract factors to the ARE site in the PSA promoter; test: Electrophoretic mobility shift assay with DHT-stimulated LNCaP nuclear extract; format: biochemical
Experimental: containing the PSA promoter ARE (underlined) was end-labeled with ^32P and annealed to its complement. Polyamides 1 and 2 were incubated with the duplex for 3 h in previously optimized buffer conditions (45). Nuclear extract from DHT-treated LNCaP cells (Genetex, San Antonio, Tex.) was then added for an additional 45 min. Complexes were run on a 5% polyacrylamide gel and visualized on a phosphorimager.
The effects of polyamides 1 and 2 on the binding of factors present in the nuclear extract isolated from DHT-stimulated LNCaP cells to the ARE site in the PSA promoter was measured by an electrophoretic mobility shift assay (FIG. 8D).

LNCaP xenografts = LNCaP xenografts in male NSG mice; format: in vivo
Experimental: All mice experiments were conducted under an approved protocol by the Institutional Animal Care and Use Committee of the California Institute of Technology. Male NOD scid gamma (NSG) mice were purchased from The Jackson Laboratory. The animals were individually caged and maintained on a standard light-dark cycle. NSG mice were engrafted with LNCaP cells (2.5 million cells) in a mixture of 1:1 media and matrigel in the left flank. Tumors were grown to ˜100 mm^3 (L×W^2) before beginning treatment with compound or vehicle. Py-Im polyamide 77 was administered once every 3 days in a 5% DMSO:PBS vehicle solution until the experiment endpoint.
To investigate if polyamide 77 could be detected in peripheral blood after SC injections, 120 nmol of 77 (in 5% DMSO/PBS) was injected into the right flank of four C57BL/6 mice. Blood was collected from anesthetized mice via retroorbital collection at 5 minutes, 4 h, and 12 h after injection, then processed by methods previously described and analyzed by HPLC (35). For measurement of serum PSA (KLK3) and uric acid, blood was collected from anesthetized mice via retroorbital collection at experimental endpoint and serum was separated from blood by centrifugation. Serum PSA (KLK3) was measured by ELISA (R&D systems) according to manufacturer's instructions. Uric acid was measured as described (36).
Tumors were resected immediately after euthanasia and fixed in neutral buffered formalin. Selected samples were embedded in paraffin, sectioned and stained with hematoxylin and eosin (H&E). Selected sections were assessed by deoxynucleotidyltransferase dUTP nick-end labeling (TUNEL) as described (45).
Mice experiments were conducted under an approved protocol by the Institutional Animal Care and Use Committee of the California Institute of Technology. Male C57BL6/J mice and male NSG mice were purchased from The Jackson Laboratory. All animals were maintained on a standard light-dark cycle. LNCaP cells (2.5 million cells) were engrafted in a mixture of 1:1 media and matrigel in the left flank of NSG mice. Tumors were allowed grow to ˜200 mm^3 (0.5×L×W^2) before treatment. Py-Im polyamide 78 was administered by SC injection once every 3 d at 1 mg/kg in a 20% (vol/vol) DMSO:Normal saline vehicle solution for 6 injections. Animals were sacrificed two days after the final injection. Animal weight and general health were monitored daily. Fourteen animals were used for each treatment group.

[3] = tested on: GR occupancy at the GILZ enhancer; test: Chromatin immunoprecipitation with anti-GR, GILZ enhancer, A549 cells; format: cell-based
Experimental: A549 cells were plated in 15-cm diameter plates. Media, polyamide treatment, time course, and […] were the same as described above. After dexamethasone treatment, cells were treated with 1% formaldehyde for 10 min. Chromatin was isolated and sheared. Antibodies to GR (graciously gifted by Keith Yamamoto) were used to immunoprecipitate GR-bound DNA fragments. Crosslinks were reversed, and PCRs using primers targeted to the regions of interest were used to assess enrichment of bound fragments as compared with mock-precipitated (no antibody) controls. PCRs were monitored with SYBR Green PCR Master Mix (Applied Biosystems) on an ABI 7300 instrument. Primer sequences and a more detailed experimental protocol are available upon request.

[4] = Escalating single dose subcutaneous injections, male C57BL/6J mice (weight, histopathology, serum)
p53 = p53 protein ELISA in LNCaP cells; format: cell-based; conditions: polyamide 10 μM 72 hr; doxorubicin 1 μM 24 hr
Experimental: Cellular levels of RPB1 and p53 protein in LNCaP cells after treatment with 10 μM 3 for 72 h were determined by ELISA. Cells treated with DMSO vehicle and 1 μM doxorubicin for 24 h were used as control. Cellular RBP1 levels were determined by a RPB1 specific ELISA kit (Cusabio Life Sciences) according to manufacturer's instructions. Total cellular p53 protein level was determined with a pan-p53 ELISA kit (Roche) according to manufacturer's instructions. Assays were performed in biological triplicates.

[5] = tested on: transcripts in DHT-stimulated LNCaP cells; conditions: previous studies (12); cited from earlier work
ARE of the PSA promoter = test: Quantitative DNase I footprint titration on pAR-PSA fragment; format: binding
Text: Plasmid pAR-PSA was constructed by inserting a 70-bp sequence from the PSA promoter containing the ARE into pUC19 plasmid. […] Detailed experimental protocols are reported elsewhere (44). The proximal PSA promoter contains the ARE [NT] ID NO:15) (FIG. 8A). […] However, 1 is observed to bind the sequence [NT]≈12 bp 5' to the ARE, which is an expected binding site for this molecule.

[6] = Liver microsomal stability, human; conditions: 1 μM, Human, 1 hr at 37° C., 1 mg/ml microsomes
Experimental: as §1

[7] = 20 nmol SC every three days, three injections

SMILES: CN(CCCNC(=O)c1cccc(C(=O)O)c1)CCCNC(=O)c1cc(NC(=O)c2cc(NC(=O)c3cc(NC(=O)c4nc(NC(=O)[C@H](N)CCNC(=O)c5cc(NC(=O)c6cc(NC(=O)c7cc(NC(=O)c8nccn8C)cn7C)cn6C)cn5C)cn4C)cn3C)cn2C)cn1C [Polyamide 1, ImPyPyPy-2-(R)H^2Nγ-ImPyPyPy-NHMe-IPA]
- RNAP2 occupancy at enhancer loci (RNAP2 genomic occupancy; DHT + 77): did not significantly change
- RNAP2 occupancy across genic regions (RNAP2 genomic occupancy; DHT + 77, 48 h): global decrease of RNAP2 occupancy across genic regions
- Mean remaining parent NADPH-free [1]: 96.8%
- Mean remaining parent with NADPH [1]: 95.2%
- cytotoxicity after 24 h treatment (LNCaP cells): minimal cytotoxicity is seen at 24 h
- concentration inhibiting binding to the labeled duplex [2]: ≥ 10 nM
- tumor weight, mean (LNCaP xenografts; [7]): 112 mg
- tumor weight, median (LNCaP xenografts; [7]): 94 mg
- tumor weight, range (LNCaP xenografts; [7]): 47 to 201 mg
- body weight, LNCaP tumor-bearing NSG mice (LNCaP xenografts; 20 nmol, three injections): exhibited weight loss
- distress and weight, tumor-free NSG mice (LNCaP xenografts; 20 nmol, three injections): no signs of distress or weight loss
- reduction of tumor growth (LNCaP xenografts; after three rounds of treatment, vs vehicle): 64%
- serum PSA post-treatment (LNCaP xenografts; compared to vehicle): lower
- immunohistological analysis of tumors (LNCaP xenografts; mouse, in vivo): evidence of cell death by TUNEL stain
- serum uric acid (LNCaP xenografts; tumor bearing mice, vs vehicle and non-tumor bearing treated mice): increases serum uric acid
- occupancy of GR at the GILZ enhancer ([3]; 1 μM as printed): decreased occupancy
- GR occupancy at the GILZ enhancer ([3]; 10 μM, FIG. 17 legend): decreased
- tolerability, behavior and morbidity after single SC dose ([4]; 1, 3, 10 mg/kg): no change in behavior and appearance
- weight loss after single SC dose ([4]; 1, 3, 10 mg/kg, 9 days): significant weight loss only at 10 mg/kg
- liver histopathology ([4]; single SC 3 mg/kg): Mild hepatocellular necrosis and apoptosis
- kidney histopathology ([4]; single SC 10 mg/kg): Milder tubular regeneration and karyomegaly
- liver histopathology ([4]; single SC 10 mg/kg): Mild hepatocellular necrosis and apoptosis
- serum kidney markers creatinine and BUN ([4]; single SC dose): not observed for any dose level
- serum liver markers AST, ALT, total bilirubin ([4]; single SC dose): significant elevation of AST, ALT, and total bilirubin at 10 mg/kg, indicative of acute damage to liver cells, and moderate elevation of ALT at 3 mg/kg
- cellular level of p53 protein (p53): increases
- share of DHT-induced transcripts affected [5]: approximately 30%
- binding at the other half-site of the ARE (ARE of the PSA promoter; 5′-AGTGCT-3′, single base pair mismatch site): Minimal binding
- Ka (ARE of the PSA promoter; ARE consensus half-site 5′-AGAACA-3′): 8.3±1.7×10^9 M^−1
- Ka (ARE of the PSA promoter; ARE half site 5′-AGAACA-3′, FIG. 8 legend): 8.3±1.7×10^9
- Kd (ARE of the PSA promoter; half-site of the ARE of the PSA promoter): subnanomolar
- Mean remaining parent NADPH-free [6]: 92.3%
- Mean remaining parent with NADPH [6]: 96.9%
